Here are results for 28 molecules from US12187662B2, “FOXM1 inhibitor compositions and methods of using the same” (The Board of Trustees of the University of Illinois, priority 2018, dated 2025).

Read-outs that look alike come from different tables or passages of the source.

In one data set the test system is MCF7 cells. Briefly: Cell proliferation assay (WST-1), MCF7. Type of data set: cell-based, human. The settings on record: read-out: IC50 MCF7. The method, then: All cells were tested for mycoplasma using Real-Time PCR Mycoplasma Detection Kit (Akron Biotech, Boca Raton, FL).
All assays were performed in triplicate.
Background: Tetrazolium dyes change colour on reduction, which living cells bring about.

Data set [1] can be described thus: Pharmacokinetic studies in mice after single s.c. or oral dose.
Description: For s.c. injection, each compound was dissolved in DMSO and then mixed with corn oil for a total injection volume of 100 μL (10% DSMO+90% corn oil) per mouse. For oral gavage, compounds were administered in a 200 μL formulation of 9/0.5/0.5/90 parts of PEG400/Tween80/Povidone/0.5% Carboxymethylcellulose. […] Compounds were quantified by LC-MS/MS at the University of Illinois Metabolomics Core Facility. The data were fitted to a non-compartment model.
Where [2] appears, read: inhibition of cell proliferation.
The mark [3] stands for this setting: Homo sapiens, MCF7, inhibition of cell proliferation.

Turning to “1-(6-(4-((Z)-((5S,7S)-adamantan-2-ylidene)(4-chlorophenyl)methyl)phenoxy)hexyl)-1-methylazepan-1-ium iodide [NB-85]”, the concentration for half-maximal inhibition (IC50) (as a rule, the concentration needed to halve the response being measured) in the data set with MCF7 cells (setting [2]) is 9.8 µM.
The same measure, in the same setting: the same measure for “1-(6-(4-((Z)-((5S,7S)-adamantan-2-ylidene)(4-chlorophenyl)methyl)phenoxy)hexyl)-1H-imidazole [NB-60]”: 16 µM; for “1-(6-(4-((Z)-((5S,7S)-adamantan-2-ylidene)(4-chlorophenyl)methyl)phenoxy)hexyl)-4-methylpiperazine [NB-64]”: 3 µM.
Take `c1cn(CCCCCCOc2ccc(C(=C3C4CC5CC(C4)CC3C5)c3ccc(OCCCCCCn4ccnc4)cc3)cc2)cn1` [NB-61, 1,1′-((((((5r,7r)-adamantan-2-ylidene)methylene)bis(4,1-phenylene))bis(oxy))bis(hexane-6,1-diyl))bis(1H-imidazole)]: the IC50 with MCF7 cells (setting [3]) stood at 7.5 µM.
On to `C[n+]1ccn(CCCCCCOc2ccc(C(=C3C4CC5CC(C4)CC3C5)c3ccc(Cl)cc3)cc2)c1` [NB-62, 1-(6-(4-((Z)-((5S,7S)-adamantan-2-ylidene)(4-chlorophenyl)methyl)phenoxy)hexyl)-3-methyl-1H-imidazol-3-ium iodide], for which the half-life (in general, the time in which the quantity being followed falls by half) in data set [1] (female, CD-1, mouse, plasma, sc, 40 mg/kg) is 36.8 h. The exposure AUC(0-t) (in general, the area under the concentration-time curve up to a stated or last time point) in data set [1] (female, CD-1, mouse, plasma, sc, 40 mg/kg, PK s.c. AUC0-48, mice, 40 mg/kg s.c.) worked out at 150 µM·h. Moreover, the “PK p.o. AUC0-48” value in data set [1] (mice, 40 mg/kg p.o.) was “too low to measure”. The IC50 in the data set with MCF7 cells (setting [3]) came out at 5.5 µM.
`CN1CC[N+](C)(CCCCCCOc2ccc(C(=C3C4CC5CC(C4)CC3C5)c3ccc(OCCCCCC[N+]4(C)CCN(C)CC4)cc3)cc2)CC1` [NB-69, 1,1′-((((((5r,7r)-adamantan-2-ylidene)methylene)bis(4,1-phenylene))bis(oxy))bis(hexane-6,1-diyl))bis(1,4-dimethylpiperazin-1-ium) dimethanesulfonate]: the half-inhibitory concentration (IC50) in the data set with MCF7 cells (setting [3]) came out at 6 µM.
Same read-out and setting: as for `Clc1ccc(C(=C2C3CC4CC(C3)CC2C4)c2ccc(OCCCCCCN3CCCCC3)cc2)cc1` [NB-118, 1-(6-(4-((Z)-((5S,7S)-Adamantan-2-ylidene)(4-chlorophenyl)methyl)phenoxy)hexyl)piperidine], the figure is 4.4 µM; as for `Clc1ccc(C(=C2C3CC4CC(C3)CC2C4)c2ccc(OCCCCCCN3CCCCCC3)cc2)cc1` [NB-119, 1-(6-(4-((Z)-((5S,7S)-Adamantan-2-ylidene)(4-chlorophenyl)methyl)phenoxy)hexyl)azepane], 4.2 µM.
With `c1cc(C(=C2C3CC4CC(C3)CC2C4)c2ccc(OCCCCN3CCCCC3)cc2)ccc1OCCCCN1CCCCC1` [NB-120, 1,1′-((((((5r,7r)-adamantan-2-ylidene)methylene)bis(4,1-phenylene))bis(oxy))bis(butane-4,1-diyl))dipiperidine], the concentration for half-maximal inhibition (IC50) with MCF7 cells (setting [3]) came out at 0.9 µM.
Still for that read-out and setting: as for `c1cc(C(=C2C3CC4CC(C3)CC2C4)c2ccc(OCCCCN3CCCCCC3)cc2)ccc1OCCCCN1CCCCCC1` [NB-121, 1,1′-((((((5r,7r)-adamantan-2-ylidene)methylene)bis(4,1-phenylene))bis(oxy))bis(butane-4,1-diyl))bis(azepane)], the figure is 1.6 µM.
As to `c1cc(C(=C2C3CC4CC(C3)CC2C4)c2ccc(OCCCCCN3CCCCC3)cc2)ccc1OCCCCCN1CCCCC1` [NB-122, 1,1′-((((((5r,7r)-adamantan-2-ylidene)methylene)bis(4,1-phenylene))bis(oxy))bis(pentane-5,1-diyl))dipiperidine], in the data set with MCF7 cells (setting [3]), the IC50 came out at 1.2 µM.
In the case of `c1cc(C(=C2C3CC4CC(C3)CC2C4)c2ccc(OCCCCCN3CCCCCC3)cc2)ccc1OCCCCCN1CCCCCC1` [NB-123, 1,1′-((((((5r,7r)-adamantan-2-ylidene)methylene)bis(4,1-phenylene))bis(oxy))bis(pentane-5,1-diyl))bis(azepane)], the concentration for half-maximal inhibition (IC50) in the data set with MCF7 cells (setting [3]) is 1 µM.
Turning to `CCN(CCO)CCCCCCOc1ccc(C(=C2C3CC4CC(C3)CC2C4)c2ccc(OCCCCCCN(CC)CCO)cc2)cc1` [NB-130, 2,2′-(((((((5r,7r)-adamantan-2-ylidene)methylene)bis(4,1-phenylene))bis(oxy))bis(hexane-6,1-diyl))bis(ethylazanediyl))bis(ethan-1-ol)], the “PK p.o. AUC0-48” value in data set [1] (mice, 40 mg/kg p.o.) is “too low to measure”. Further, in the data set with MCF7 cells (setting [3]), the 50% inhibitory concentration (IC50) was found to be 1.2 µM.
With `OCCN(CCO)CCCCCCOc1ccc(C(=C2C3CC4CC(C3)CC2C4)c2ccc(OCCCCCCN(CCO)CCO)cc2)cc1` [NB-131, 2,2′,2″,2″′-(((((((5r,7r)-adamantan-2-ylidene)methylene)bis(4,1-phenylene))bis(oxy))bis(hexane-6,1-diyl))bis(azanetriyl))tetrakis(ethan-1-ol)], in data set [1] (mice, 40 mg/kg p.o.), the “PK p.o. AUC0-48” value is reported as “too low to measure”. Moreover, the IC50 with MCF7 cells (setting [3]) is 0.9 µM.
For `OC1CCN(CCCCCCOc2ccc(C(=C3C4CC5CC(C4)CC3C5)c3ccc(OCCCCCCN4CCC(O)CC4)cc3)cc2)CC1` [NB-132, 1,1′-((((((5r,7r)-adamantan-2-ylidene)methylene)bis(4,1-phenylene))bis(oxy))bis(hexane-6,1-diyl))bis(piperidin-4-ol)], the 50% inhibitory concentration (IC50) in the data set with MCF7 cells (setting [3]) worked out at 1.6 µM.
Take `c1cc(C(=C2C3CC4CC(C3)CC2C4)c2ccc(OCCCCCCN3CCC3)cc2)ccc1OCCCCCCN1CCC1` [NB-133, 1,1′-((((((5r,7r)-adamantan-2-ylidene)methylene)bis(4,1-phenylene))bis(oxy))bis(hexane-6,1-diyl))bis(azetidine)]: the IC50 in the data set with MCF7 cells (setting [3]) amounted to 0.8 µM.
The same measure, in the same setting: as for `C[N+](CCO)(CCO)CCCCCCOc1ccc(C(=C2C3CC4CC(C3)CC2C4)c2ccc(OCCCCCC[N+](C)(CCO)CCO)cc2)cc1` [NB-135, 6,6′-(((((5r,7r)-adamantan-2-ylidene)methylene)bis(4,1-phenylene))bis(oxy))bis(N,N-bis(2-hydroxyethyl)-N-methylhexan-1-aminium) diiodide], the figure is 2.1 µM; as for `C[N+]1(CCCCCCOc2ccc(C(=C3C4CC5CC(C4)CC3C5)c3ccc(OCCCCCC[N+]4(C)CCC(O)CC4)cc3)cc2)CCC(O)CC1` (stereo not drawn) [NB-136, 1,1′-((((((5r,7r)-adamantan-2-ylidene)methylene)bis(4,1-phenylene))bis(oxy))bis(hexane-6,1-diyl))bis(4-hydroxy-1-methylpiperidin-1-ium) diiodide], 1 µM; as for `C[N+]1(CCCCCCOc2ccc(C(=C3C4CC5CC(C4)CC3C5)c3ccc(OCCCCCC[N+]4(C)CCC4)cc3)cc2)CCC1` [NB-137, 1,1′-((((((5r,7r)-adamantan-2-ylidene)methylene)bis(4,1-phenylene))bis(oxy))bis(hexane-6,1-diyl))bis(1-methylazetidin-1-ium) diiodide], 2.3 µM.
Take `OC[C@@H]1CCCN1CCCCCCOc1ccc(C(=C2C3CC4CC(C3)CC2C4)c2ccc(OCCCCCCN3CCC[C@H]3CO)cc2)cc1` [NB-138, ((2S,2'S)-((((((5r,7r)-adamantan-2-ylidene)methylene)bis(4,1-phenylene))bis(oxy))bis(hexane-6,1-diyl))bis(pyrrolidine-1,2-diyl))dimethanol]: in data set [1] (mice, 40 mg/kg p.o.), the “PK p.o. AUC0-48” value is 1.84 µM·h and the “PK p.o. t1/2” value was found to be 25.0 h. Moreover, in the data set on MCF7 cells (setting [3]), the half-inhibitory concentration (IC50) worked out at 0.7 µM.
In the case of `C[N+]1(CCCCCCOc2ccc(C(=C3C4CC5CC(C4)CC3C5)c3ccc(OCCCCCC[N+]4(C)CCC[C@H]4CO)cc3)cc2)CCC[C@H]1CO` (stereo partly drawn) [NB-139, (1R,1′R,2S,2'S)-1,1′-((((((5r,7r)-adamantan-2-ylidene)methylene)bis(4,1-phenylene))bis(oxy))bis(hexane-6,1-diyl))bis(2-(hydroxymethyl)-1-methylpyrrolidin-1-ium) diiodide], in the data set with MCF7 cells (setting [3]), the IC50 worked out at 0.9 µM.
Consider `OCC[N+]1(CCCCCCOc2ccc(C(=C3C4CC5CC(C4)CC3C5)c3ccc(OCCCCCC[N+]4(CCO)CCCC4)cc3)cc2)CCCC1` [NB-140, 1,1′-((((((5r,7r)-adamantan-2-ylidene)methylene)bis(4,1-phenylene))bis(oxy))bis(hexane-6,1-diyl))bis(1-(2-hydroxyethyl)pyrrolidin-1-ium) diiodide], for which the half-maximal inhibitory concentration (IC50) in the data set with MCF7 cells (setting [3]) came out at 1.6 µM.
In the case of `OCC[N+]1(CCCCCCOc2ccc(C(=C3C4CC5CC(C4)CC3C5)c3ccc(OCCCCCC[N+]4(CCO)CCCCC4)cc3)cc2)CCCCC1` [NB-141, 1,1′-((((((5r,7r)-adamantan-2-ylidene)methylene)bis(4,1-phenylene))bis(oxy))bis(hexane-6,1-diyl))bis(1-(2-hydroxyethyl)piperidin-1-ium) diiodide], in the data set on MCF7 cells (setting [3]), the half-inhibitory concentration (IC50) is 3.6 µM.
The same measure, in the same setting: the same measure for `OCC[N+]1(CCCCCCOc2ccc(C(=C3C4CC5CC(C4)CC3C5)c3ccc(OCCCCCC[N+]4(CCO)CCCCCC4)cc3)cc2)CCCCCC1` [NB-142, 1,1′-((((((5r,7r)-adamantan-2-ylidene)methylene)bis(4,1-phenylene))bis(oxy))bis(hexane-6,1-diyl))bis(1-(2-hydroxyethyl)azepan-1-ium) diiodide]: 2.4 µM; for `CC1(O)CN(CCCCCCOc2ccc(C(=C3C4CC5CC(C4)CC3C5)c3ccc(OCCCCCCN4CC(C)(O)C4)cc3)cc2)C1` [NB-143, 1,1′-((((((5r,7r)-adamantan-2-ylidene)methylene)bis(4,1-phenylene))bis(oxy))bis(hexane-6,1-diyl))bis(3-methylazetidin-3-ol)]: 1.1 µM; for `CC1(O)C[N+](C)(CCCCCCOc2ccc(C(=C3C4CC5CC(C4)CC3C5)c3ccc(OCCCCCC[N+]4(C)CC(C)(O)C4)cc3)cc2)C1` (stereo not drawn) [NB-144, 1,1′-((((((5r,7r)-adamantan-2-ylidene)methylene)bis(4,1-phenylene))bis(oxy))bis(hexane-6,1-diyl))bis(3-hydroxy-1,3-dimethylazetidin-1-ium) diiodide]: 1.8 µM.
Turning to `OC1CN(CCCCCCOc2ccc(C(=C3C4CC5CC(C4)CC3C5)c3ccc(OCCCCCCN4CC(O)C4)cc3)cc2)C1` [NB-145, 1,1′-((((((5r,7r)-adamantan-2-ylidene)methylene)bis(4,1-phenylene))bis(oxy))bis(hexane-6,1-diyl))bis(azetidin-3-ol)], in data set [1] (mice, 40 mg/kg p.o.), the “PK p.o. AUC0-48” value is listed as “too low to measure”. In the data set with MCF7 cells (setting [3]), the half-maximal inhibitory concentration (IC50) is 0.9 µM.
With “(S)-1-(6-(4-((Z)-((5S,7S)-adamantan-2-ylidene)(4-chlorophenyl)methyl)phenoxy)hexyl)-1-methyl-1λ^4-piperidin-2-ylium iodide [NB-84]”, the half-inhibitory concentration (IC50) with MCF7 cells (setting [2]) stood at 6 µM.
